Results published in patent US11000627B2, “Treatment of implants with phosphonic acid compounds” (Nano Bridging Molecules SA, priority 2016, dated 2021).
Like-named read-outs stand apart in the source and are kept apart here. Marks after values point to notes of the source that are not given here.

Key:
Format in all cases: physicochemical
[1] = XPS phosphorus over metal ratio on Titanium grade 5 dental implant (prospective data); conditions: 0.5 mM, sonicated 65° C. 10 min, Metal = Ti2p + Al2s + V2p
Experimental: A Titanium grade 5 dental implant (bulk composition atomic concentration Titanium 90%, Aluminum 6%, Vanadium 4%; length 11.0 mm, diameter 3.75 mm) is provided with a roughened surface, produced by sand blasting and acid etching according to industry standards. The dental implant is immersed in 30 ml of a 2% (v/v) aqueous solution of deconex 15 PF-x (which is a phosphate free, potassium hydroxide based standard cleaning agent). The solution is placed in an ultrasonic bath (output frequency 30 kHz) and sonicated at 65° C. for 15 min. The implant is removed from the cleaning agent solution and rinsed with water as follows: 2 times with 30 ml, swirling at room temperature; 4 times with 30 ml, sonicating for 2 min at 65° C.; 1 time with 30 ml, swirling at room temperature. […] The solution is placed in the ultrasonic bath and sonicated at 65° C. for 10 min. The implant is rinsed with water as follows: 2 times with 10 ml, swirling at room temperature; 1 time with 10 ml, sonicating for 2 min at 65° C.; 1 time with 10 ml, swirling at room temperature. The dental implant is dried in a desiccator over P2O5 and under vacuum (ca 20 mbar) for at least 3 hours. The samples are analyzed by X-ray photoelectron spectroscopy (XPS). Same analysis conditions as described in Example 8 are used.

[2] = as above; conditions: room temperature comparative process
[3] = XPS phosphorus over metal ratio on Titanium grade 4 cylinders
Experimental: XPS analyses were performed on an Axis Ultra spectrometer from Kratos (Kratos, Manchester, U.K.) equipped with a concentric hemispherical analyzer and using a monochromatized aluminum anode X-ray source (Al Kα1,2 1486.6 eV, full width at half maximum, fwhm=0.85 eV, 15 kV, 150 W). The samples were investigated under ultrahigh vacuum conditions: 10^−8-10^−7 Pa. Spectra were taken at a 90° takeoff angle with respect to the surface. A sample area of 300×700 μm^2 or 700×700 μm^2 was analyzed with a pass energy of 80.0 eV for survey scans. The spectrometer was calibrated by using Cu 2p3/2 (932.7 eV) and Au 4f7/2 (84.0 eV) signals. Surface sensitivity factors used to determine the atomic concentrations were those of the instrument. Spectra were peak fitted after background subtraction by assuming a Gaussian/Lorentzian (90-70/10-30) peak shape. All peaks between 0 eV to 1200 eV were inspected.
Two Titanium grade 4 cylinders (bulk composition atomic concentration Titanium 100%; length 6.0 mm, diameter 2.4 mm) were provided with a roughened surface, produced by sand blasting and acid etching according to industry standards. The cylinders were immersed in 6 ml of a 2% (v/v) aqueous solution of deconex 15 PF-x (which is a phosphate free, potassium hydroxide based standard cleaning agent). The solution was placed in an ultrasonic bath (output frequency 30 kHz) and sonicated at 65° C. for 15 min. The cylinders were removed from the cleaning agent solution and rinsed with water as follows: 2 times with 10 ml, swirling at room temperature; 4 times with 10 ml, sonicating for 2 min at 65° C.; 1 time with 10 ml, swirling at room temperature. The cylinders were then placed into 6 ml of a 0.7 mM aqueous solution of 1,1,3,3-propane tetraphosphonic acid. The solution was placed in the ultrasonic bath and sonicated at 65° C. for 15 min. The cylinders were rinsed with water as follows: 2 times with 10 ml, swirling at room temperature; 1 time with 10 ml, sonicating for 2 min at 65° C.; 1 time with 10 ml, swirling at room temperature. The cylinders were dried in a desiccator over P2O5 and under vacuum (ca 20 mbar) for at least 3 hours.
Two Titanium grade 4 cylinders (bulk composition atomic concentration Titanium 100%; length 6.0 mm, diameter 2.4 mm) were provided with a roughened surface, produced by sand blasting and acid etching according to industry standards. The cylinders were immersed in 6 ml of a 2% (v/v) aqueous solution of deconex 15 PF-x (which is a phosphate free, potassium hydroxide based standard cleaning agent). The solution was placed in an ultrasonic bath (output frequency 30 kHz) and sonicated at room temperature for 15 min. The cylinders were removed from the cleaning agent solution and rinsed with water as follows: 2 times with 10 ml, swirling at room temperature; 4 times with 10 ml, sonicating for 2 min at room temperature; 1 time with 10 ml, swirling at room temperature. The cylinders were then placed into 6 ml of a 0.7 mM aqueous solution of 1,1,3,3-propane tetraphosphonic acid. The solution was swirled thoroughly and left to stand at room temperature for 15 min. The cylinders were rinsed with water as follows: 2 times with 10 ml, swirling at room temperature; 1 time with 10 ml, sonicating for 2 min at room temperature; 1 time with 10 ml, swirling at room temperature. The cylinders were dried in a desiccator over P2O5 and under vacuum (ca 20 mbar) for at least 3 hours.

[4] = Concentration 2 mM, sonicated 65° C. 15 min, Metal = Ti2p

O=P(O)(O)CCCP(=O)(O)O [PA-2, propane-1,3-diphosphonic acid]
Phosphorus/Metal (surface treatment as described herein above) [1]: 0.16-0.20 | Phosphorus/Metal (surface treatment as described in Comp. Example 6) [2]: 0.05-0.11

NC(CP(=O)(O)O)C(=O)O (centres unmarked) [PA-8, 2-amino-3-phosphonopropionic acid]
Phosphorus/Metal (surface treatment as described herein above) [1]: 0.16-0.20 | Phosphorus/Metal (surface treatment as described in Comp. Example 6) [2]: 0.05-0.11

O=P(O)(O)C1CCCCC1 [PA-5, 1-cyclohexyl phosphonic acid]
Phosphorus/Metal (surface treatment as described herein above) [1]: 0.16-0.20 | Phosphorus/Metal (surface treatment as described in Comp. Example 6) [2]: 0.05-0.11

C=CCP(=O)(O)O [PA-4, 1-propene-3-phosphonic acid]
Phosphorus/Metal (surface treatment as described herein above) [1]: 0.16-0.20 | Phosphorus/Metal (surface treatment as described in Comp. Example 6) [2]: 0.05-0.11

O=P(O)(O)c1ccccc1 [PA-6, phenyl-1-phosphonic acid]
Phosphorus/Metal (surface treatment as described herein above) [1]: 0.16-0.20 | Phosphorus/Metal [3, 4]: 0.03^b | Phosphorus/Metal (surface treatment as described in Comp. Example 6) [2]: 0.05-0.11

O=P(O)(O)CP(=O)(O)O [Methylene-1,1-diphosphonic acid]
Phosphorus/Metal [3]: 0.10^b

CC(O)(P(=O)(O)O)P(=O)(O)O [PA-10, etidronic acid, reference compound]
Phosphorus/Metal (surface treatment as described herein above) [1]: 0.16-0.20 | Phosphorus/Metal ([3]; Concentration 1 mM, sonicated 65° C. 15 min, Metal = Ti2p): 0.09^b | Phosphorus/Metal (surface treatment as described in Comp. Example 6) [2]: 0.05-0.11

O=C(CP(=O)(O)O)Oc1ccccc1C(=O)O [PA-9, 2-(2-phosphonoacetoxy)benzoic acid]
Phosphorus/Metal (surface treatment as described herein above) [1]: 0.16-0.20 | Phosphorus/Metal (surface treatment as described in Comp. Example 6) [2]: 0.05-0.11

CC(C)(C)P(=O)(O)O [PA-3, tert-butyl phosphonic acid]
Phosphorus/Metal (surface treatment as described herein above) [1]: 0.16-0.20 | Phosphorus/Metal [3, 4]: 0.02^b | Phosphorus/Metal (surface treatment as described in Comp. Example 6) [2]: 0.05-0.11
